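Cells were grown in 96-well plates and exposed to each compound for 48 hours at five concentrations; endpoints were interpolated linearly between bracketing concentrations, or set to the highest concentration if not reached. TGI denotes the concentration required for complete inhibition of growth.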

Test systems include SK-MEL-28 melanoma; SNB-75 CNS; NCI-H23 lung; HOP-92 NSCLC; NCI-H460 lung; NCI-H226 lung; ACHN renal; SW-620 colon; HCT-15 colon; RXF 393 renal.
What all share (assay): NCI tumour cell line growth inhibition, 48 h

For the molecule `O=C(NCC1Nc2ccncc2S(=O)(=O)N1)c1ccc(Br)cc1` (stereo not given), the TGI with SK-MEL-28 melanoma, in the assay on SNB-75 CNS, in the assay with NCI-H23 lung, with HOP-92 NSCLC, in the assay on NCI-H460 lung and in the assay on NCI-H226 lung was greater than 100 µM each time. Also, the TGI in the assay on ACHN renal, in the assay with SW-620 colon, in the assay on HCT-15 colon and with RXF 393 renal was greater than 100 µM each time.
Take `O=C1Cc2c(-c3ccc(Cl)cc3)cc(-c3ccccc3)nc2-c2ccccc2N1`: the TGI with SK-MEL-28 melanoma worked out at 34.8 µM; with SNB-75 CNS it was 14.2 µM; in the assay with NCI-H23 lung, 33.8 µM; in the assay with HOP-92 NSCLC, 14.6 µM; in the assay with NCI-H460 lung, 10.7 µM; in the assay on NCI-H226 lung it was 44.9 µM. Moreover, the TGI in the assay on ACHN renal is 28.3 µM; with SW-620 colon, greater than 46 µM; in the assay on HCT-15 colon, greater than 44.8 µM; with RXF 393 renal, 20.3 µM.
On to `C[C@]12CC[C@H]3[C@@H](CCC4=CC(=O)C=C[C@@]43O)[C@@H]1CCC2=O`, for which the TGI in the assay on SK-MEL-28 melanoma, with SNB-75 CNS, in the assay with NCI-H23 lung, in the assay with HOP-92 NSCLC, in the assay on NCI-H460 lung and in the assay on NCI-H226 lung was greater than 100 µM in each case. The TGI in the assay on ACHN renal, with SW-620 colon, in the assay with HCT-15 colon and in the assay on RXF 393 renal was greater than 100 µM in each case.
Turning to `COc1cc(Oc2nc3ccccc3nc2C(=O)O)cc(OC)c1OC`, the TGI in the assay with SK-MEL-28 melanoma, in the assay with SNB-75 CNS, in the assay with NCI-H23 lung, in the assay on HOP-92 NSCLC, in the assay with NCI-H460 lung and in the assay with NCI-H226 lung was greater than 100 µM in each case. Also, the TGI in the assay with ACHN renal, with SW-620 colon, with HCT-15 colon and in the assay with RXF 393 renal was greater than 100 µM each time.
In the case of `CCOC(=O)c1ccc(-c2cc(C)[nH]n2)[nH]1`, the TGI with SK-MEL-28 melanoma, in the assay with SNB-75 CNS, in the assay with NCI-H23 lung, in the assay on HOP-92 NSCLC, in the assay with NCI-H460 lung and in the assay on NCI-H226 lung was greater than 100 µM in each case. Moreover, the TGI in the assay with ACHN renal, in the assay on SW-620 colon, in the assay on HCT-15 colon and with RXF 393 renal was greater than 100 µM in each case.
As for `COc1cc2c(cc1OCCCC(=O)Nc1cc(C(=O)Nc3cc(C(=O)Nc4cc(C(=O)NCCCN(C)C)n(C)c4)n(C)c3)n(C)c1)N=C[C@@H]1CCCN1C2=O`, the TGI with SK-MEL-28 melanoma stood at 4.66 µM; with SNB-75 CNS, 9.95 µM; in the assay on NCI-H23 lung it was 4.4 µM; in the assay on HOP-92 NSCLC it was 3.38 µM; in the assay with NCI-H460 lung it was 17.6 µM; in the assay on NCI-H226 lung it was 37.9 µM. Further, the TGI in the assay on ACHN renal turned out to be 2.99 µM; with SW-620 colon it was 5.98 µM; in the assay with HCT-15 colon, 3.86 µM; in the assay on RXF 393 renal, 3.15 µM.
Consider `CCCCC1(N=[N+]=[N-])C(=O)c2cccc3c2N(CCC3)C1=O` (stereo not given), for which the TGI in the assay with SK-MEL-28 melanoma, in the assay on SNB-75 CNS, in the assay with NCI-H23 lung, in the assay on HOP-92 NSCLC, with NCI-H460 lung and in the assay with NCI-H226 lung was greater than 100 µM in each case. Further, the TGI in the assay with ACHN renal, with SW-620 colon, in the assay on HCT-15 colon and in the assay on RXF 393 renal was greater than 100 µM in each case.
On to `O=S(=O)(c1cc(Cl)ccc1Cl)N1CCN(S(=O)(=O)c2cc(Cl)ccc2Cl)CC1`, for which the TGI in the assay with SK-MEL-28 melanoma is greater than 100 µM; with SNB-75 CNS it was greater than 100 µM; in the assay on NCI-H23 lung, 18.7 µM; with HOP-92 NSCLC, greater than 100 µM; in the assay on NCI-H460 lung, greater than 100 µM; in the assay with NCI-H226 lung, greater than 100 µM. For the same molecule, the TGI in the assay with ACHN renal, in the assay on SW-620 colon, in the assay on HCT-15 colon and in the assay with RXF 393 renal was greater than 100 µM throughout.
In the case of `COCn1c(C)c(C)c2c(=O)oc(=O)[nH]c21`, the TGI with SK-MEL-28 melanoma, with SNB-75 CNS, in the assay on NCI-H23 lung, with HOP-92 NSCLC, in the assay on NCI-H460 lung and in the assay on NCI-H226 lung was greater than 100 µM each time. Further, the TGI with ACHN renal, with SW-620 colon, with HCT-15 colon and in the assay with RXF 393 renal was greater than 100 µM each time.
`Cc1cc(NS(=O)(=O)c2ccc(NC(=O)c3ccc4nc5ccccc5c(Nc5ccc(S(=O)(=O)N=C(N)N)cc5)c4c3)cc2)no1`: the TGI with SK-MEL-28 melanoma came to 35 µM; in the assay on SNB-75 CNS, 51.9 µM; in the assay with NCI-H23 lung, 38.6 µM; in the assay with HOP-92 NSCLC it was 67.6 µM; in the assay on NCI-H460 lung it was 34.5 µM; in the assay with NCI-H226 lung, 28.5 µM. Also, the TGI with ACHN renal turned out to be 26.4 µM; with SW-620 colon it was 48.5 µM; in the assay with HCT-15 colon, 29.3 µM; in the assay with RXF 393 renal it was 31.1 µM.
Consider `CO/C(=N\N=C\c1ccc(Cl)cc1)c1ccncc1`, for which the TGI in the assay with SK-MEL-28 melanoma, in the assay with SNB-75 CNS, in the assay on NCI-H23 lung, with HOP-92 NSCLC, in the assay with NCI-H460 lung and in the assay with NCI-H226 lung was greater than 100 µM in each case. For the same molecule, the TGI in the assay with ACHN renal, in the assay on SW-620 colon, in the assay on HCT-15 colon and in the assay on RXF 393 renal was greater than 100 µM in each case.
In the case of `O=C1COC(c2ccccc2O)=NN1CCCN1CCCC1`, the TGI in the assay on SK-MEL-28 melanoma, with SNB-75 CNS, in the assay on NCI-H23 lung, in the assay with HOP-92 NSCLC, with NCI-H460 lung and with NCI-H226 lung was greater than 100 µM throughout. The TGI in the assay with ACHN renal, in the assay with SW-620 colon, in the assay with HCT-15 colon and in the assay with RXF 393 renal was greater than 100 µM each time.
As to `O=[N+]([O-])c1ccc2c(c1)nc(Cc1ccccc1)n2C[C@@H]1CCCN2CCCCC12` (stereo not given in full), the TGI in the assay on SK-MEL-28 melanoma was 38.3 µM; in the assay on SNB-75 CNS, greater than 100 µM; in the assay on NCI-H23 lung, greater than 100 µM; with HOP-92 NSCLC it was greater than 100 µM; with NCI-H460 lung it was greater than 100 µM; in the assay on NCI-H226 lung, greater than 100 µM. For the same molecule, the TGI was greater than 100 µM in the assay on ACHN renal, greater than 100 µM with SW-620 colon, greater than 100 µM with HCT-15 colon and 59.6 µM in the assay with RXF 393 renal.
